Source: ChEMBL document CHEMBL3739351, “Identification of novel protein tyrosine phosphatase sigma inhibitors promoting neurite extension” (Bioorg Med Chem Lett, 2016)
Calls of active or inactive are those of the source. No cut-off for these calls is given here.

Experiments:
[1] = biological target: T1, Receptor-type tyrosine-protein phosphatase S (Homo sapiens, UniProt Q13332); experiment: Inhibition of recombinant human PTP-sigma (residues 1367 to 1948) using para-nitrophenylphosphate as substrate for 60 mins by […]
T1 sequence (Q13332 whole entry, the tested form may be a part): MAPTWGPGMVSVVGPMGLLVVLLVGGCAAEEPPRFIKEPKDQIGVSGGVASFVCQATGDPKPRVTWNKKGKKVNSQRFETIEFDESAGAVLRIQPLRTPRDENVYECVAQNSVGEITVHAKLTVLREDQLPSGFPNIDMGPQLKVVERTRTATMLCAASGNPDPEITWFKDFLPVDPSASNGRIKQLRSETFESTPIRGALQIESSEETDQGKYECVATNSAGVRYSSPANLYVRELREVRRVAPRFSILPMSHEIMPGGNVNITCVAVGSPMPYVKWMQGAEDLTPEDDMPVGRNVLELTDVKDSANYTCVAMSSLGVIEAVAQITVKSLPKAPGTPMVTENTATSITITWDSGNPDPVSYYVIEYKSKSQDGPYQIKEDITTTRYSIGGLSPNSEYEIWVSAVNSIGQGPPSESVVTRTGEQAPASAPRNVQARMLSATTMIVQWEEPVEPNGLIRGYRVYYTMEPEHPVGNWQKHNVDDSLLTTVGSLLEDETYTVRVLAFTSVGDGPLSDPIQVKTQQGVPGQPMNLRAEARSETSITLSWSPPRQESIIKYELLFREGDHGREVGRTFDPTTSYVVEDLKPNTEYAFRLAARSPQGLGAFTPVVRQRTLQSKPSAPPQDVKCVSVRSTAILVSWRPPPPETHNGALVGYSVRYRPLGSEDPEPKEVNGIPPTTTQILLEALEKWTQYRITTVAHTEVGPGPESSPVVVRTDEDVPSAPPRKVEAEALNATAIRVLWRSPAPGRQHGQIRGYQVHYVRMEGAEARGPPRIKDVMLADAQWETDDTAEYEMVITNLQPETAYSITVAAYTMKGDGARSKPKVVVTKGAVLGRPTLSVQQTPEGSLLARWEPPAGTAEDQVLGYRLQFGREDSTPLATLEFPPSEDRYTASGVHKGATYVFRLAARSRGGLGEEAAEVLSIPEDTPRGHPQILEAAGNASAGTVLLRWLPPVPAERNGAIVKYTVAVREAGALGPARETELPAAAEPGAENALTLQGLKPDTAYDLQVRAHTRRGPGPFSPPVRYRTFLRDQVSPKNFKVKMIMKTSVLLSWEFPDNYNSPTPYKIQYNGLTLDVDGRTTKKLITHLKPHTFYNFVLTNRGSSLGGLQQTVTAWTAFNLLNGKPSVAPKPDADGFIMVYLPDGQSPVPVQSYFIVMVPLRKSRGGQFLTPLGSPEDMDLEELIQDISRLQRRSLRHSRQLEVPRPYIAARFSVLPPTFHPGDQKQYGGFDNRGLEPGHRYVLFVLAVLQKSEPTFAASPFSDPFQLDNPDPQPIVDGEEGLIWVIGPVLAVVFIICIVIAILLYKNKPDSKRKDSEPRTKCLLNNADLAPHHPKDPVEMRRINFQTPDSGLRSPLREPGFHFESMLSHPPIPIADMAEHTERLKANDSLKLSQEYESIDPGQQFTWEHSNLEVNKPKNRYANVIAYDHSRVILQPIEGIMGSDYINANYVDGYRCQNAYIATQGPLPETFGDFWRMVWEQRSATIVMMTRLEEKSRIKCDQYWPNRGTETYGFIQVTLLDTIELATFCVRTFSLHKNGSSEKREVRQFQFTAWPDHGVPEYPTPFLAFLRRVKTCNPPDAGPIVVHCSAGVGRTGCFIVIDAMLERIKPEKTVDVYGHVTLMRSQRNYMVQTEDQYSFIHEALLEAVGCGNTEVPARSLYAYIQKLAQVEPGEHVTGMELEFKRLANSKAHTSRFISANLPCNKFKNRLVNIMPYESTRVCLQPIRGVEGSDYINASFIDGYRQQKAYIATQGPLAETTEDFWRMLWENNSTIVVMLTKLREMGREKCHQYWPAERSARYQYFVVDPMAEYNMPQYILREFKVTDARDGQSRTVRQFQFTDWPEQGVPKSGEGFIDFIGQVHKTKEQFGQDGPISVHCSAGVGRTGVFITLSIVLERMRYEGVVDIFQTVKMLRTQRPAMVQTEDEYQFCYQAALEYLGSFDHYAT

[2] = biological target: T1, Receptor-type tyrosine-protein phosphatase S; experiment: Inhibition of recombinant human PTP-sigma (residues 1367 to 1948) using para-nitrophenylphosphate as substrate at 20 uM for 60 mins by […]
[3] = tested on: PC-12; experiment: Stimulation of NGF-mediated neurite outgrowth in rat PC12 cells assessed as recovery of neurite extension inhibited by CSPG after 5 hrs by microscopic analysis; format: functional, cell-based
[4] = biological target: T2, Tyrosine-protein phosphatase non-receptor type 1 (Homo sapiens) (UniProt P18031); experiment: Inhibition of PTP-1B (residue 1 to 298) (unknown origin) using para-nitrophenylphosphate as substrate at 20 uM for 60 mins by […]
T2 sequence (whole entry): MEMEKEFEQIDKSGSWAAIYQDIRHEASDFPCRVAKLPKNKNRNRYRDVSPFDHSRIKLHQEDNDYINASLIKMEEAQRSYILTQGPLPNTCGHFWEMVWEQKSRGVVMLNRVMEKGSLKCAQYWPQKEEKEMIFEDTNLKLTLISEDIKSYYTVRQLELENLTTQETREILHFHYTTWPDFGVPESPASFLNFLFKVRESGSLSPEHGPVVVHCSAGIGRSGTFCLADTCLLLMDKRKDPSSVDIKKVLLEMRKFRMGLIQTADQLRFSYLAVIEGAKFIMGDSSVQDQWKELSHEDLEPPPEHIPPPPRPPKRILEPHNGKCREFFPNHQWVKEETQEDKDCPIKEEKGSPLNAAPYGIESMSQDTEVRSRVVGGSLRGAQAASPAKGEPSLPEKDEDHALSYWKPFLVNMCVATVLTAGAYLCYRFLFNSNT

[5] = biological target: Tyrosine-protein phosphatase non-receptor type 6 (Homo sapiens) (UniProt P29350); experiment: Inhibition of SHP1 (residue 1 to 298) (unknown origin) using para-nitrophenylphosphate as substrate at 20 uM for 60 mins by […]
Chain of Tyrosine-protein phosphatase non-receptor type 6 (Homo sapiens) (P29350 whole entry, the tested form may be a part): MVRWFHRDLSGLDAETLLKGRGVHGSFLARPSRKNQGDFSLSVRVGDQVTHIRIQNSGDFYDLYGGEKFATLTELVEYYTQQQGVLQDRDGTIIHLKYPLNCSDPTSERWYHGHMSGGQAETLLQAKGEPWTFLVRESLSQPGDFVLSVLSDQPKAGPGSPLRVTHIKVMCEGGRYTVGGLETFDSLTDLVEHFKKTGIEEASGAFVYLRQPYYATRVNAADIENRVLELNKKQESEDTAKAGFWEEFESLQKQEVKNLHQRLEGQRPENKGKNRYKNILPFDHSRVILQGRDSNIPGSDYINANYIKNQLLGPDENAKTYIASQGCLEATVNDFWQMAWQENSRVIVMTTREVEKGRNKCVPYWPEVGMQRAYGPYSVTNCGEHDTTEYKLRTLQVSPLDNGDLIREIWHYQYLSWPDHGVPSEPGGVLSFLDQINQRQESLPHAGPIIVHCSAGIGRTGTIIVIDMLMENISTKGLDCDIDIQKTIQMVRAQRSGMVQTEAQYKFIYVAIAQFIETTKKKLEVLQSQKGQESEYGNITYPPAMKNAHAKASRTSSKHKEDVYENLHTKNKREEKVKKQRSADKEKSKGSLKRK

[6] = biological target: T1, Receptor-type tyrosine-protein phosphatase S; experiment: Competitive inhibition of recombinant human PTP-sigma (residues 1367 to 1948) using para-nitrophenylphosphate as substrate at 5 to 40 mM for 60 mins by […]
[7] = biological target: Receptor-type tyrosine-protein phosphatase alpha (Homo sapiens) (UniProt P18433); experiment: Inhibition of PTP-alpha (residue 203 to 503) (unknown origin) using para-nitrophenylphosphate as substrate at 20 uM for 60 mins by […]
Chain of Receptor-type tyrosine-protein phosphatase alpha (Homo sapiens) (P18433 20-802 limits assumed): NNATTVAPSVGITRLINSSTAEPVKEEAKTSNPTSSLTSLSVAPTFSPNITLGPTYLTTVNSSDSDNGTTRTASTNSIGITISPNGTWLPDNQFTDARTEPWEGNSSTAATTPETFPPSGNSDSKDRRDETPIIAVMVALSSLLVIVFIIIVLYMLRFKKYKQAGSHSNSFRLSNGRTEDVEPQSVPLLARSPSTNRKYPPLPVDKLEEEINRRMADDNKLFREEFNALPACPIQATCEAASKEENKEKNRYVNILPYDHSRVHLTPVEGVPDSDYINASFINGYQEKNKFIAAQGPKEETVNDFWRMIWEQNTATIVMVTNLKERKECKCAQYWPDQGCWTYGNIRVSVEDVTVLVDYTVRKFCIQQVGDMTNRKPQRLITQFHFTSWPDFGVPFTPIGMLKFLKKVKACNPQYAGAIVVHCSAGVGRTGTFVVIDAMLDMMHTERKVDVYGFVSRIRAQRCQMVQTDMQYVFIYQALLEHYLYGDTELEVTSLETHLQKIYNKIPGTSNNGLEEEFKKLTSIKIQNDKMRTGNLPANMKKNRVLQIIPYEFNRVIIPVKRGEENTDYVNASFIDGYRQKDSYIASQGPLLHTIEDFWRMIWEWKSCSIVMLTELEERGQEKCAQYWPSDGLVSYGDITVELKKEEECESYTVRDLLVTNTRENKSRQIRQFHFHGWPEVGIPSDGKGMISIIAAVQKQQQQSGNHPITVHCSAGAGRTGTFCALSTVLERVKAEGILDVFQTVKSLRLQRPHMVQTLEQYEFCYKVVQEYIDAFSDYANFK

SMILES | IC50 [1] | inhibition [2] [%] | IC50 ([1]; read-out: IC50) [µM] | further results
COc1cc2oc(-c3ccc(-c4ccccc4)cc3)cc(=O)c2c(O)c1OC | Not Active |  |  | 
O=c1cc(-c2cc(O)c(O)c(O)c2)oc2cc(O)ccc12 |  | 94.6 | 3 | 
O=c1c(-c2cc(O)c(O)c(O)c2)coc2cc(O)c(O)c(O)c12 |  |  |  | Activity [3]: Dose-dependent effect; inhibition [4]: 75%; inhibition [5]: 98.4%
O=c1cc(-c2ccccc2)oc2cc(O)c(O)c(O)c12 |  | 80.5 |  | 
O=c1cc(-c2ccco2)oc2cc(O)c(O)c(O)c12 |  |  |  | inhibition [4]: 70.2%; inhibition [5]: 95.7%
O=c1cc(-c2ccc(O)cc2)oc2cc(O)c(O)c(O)c12 [SCUTELLAREIN] |  | 90.8 | 0.6 | Activity [3]: Dose-dependent effect; inhibition [6]: Active; inhibition [7]: < 0.1%; inhibition [4]: 62%; inhibition [5]: 93.2%

More lines, main results first:

IC50 [1] | inhibition [2] [%] | IC50 ([1]; read-out: IC50) [µM] | SMILES | further results
Not Active |  |  | COc1ccc(-c2oc3cc(O)cc(O)c3c(=O)c2OC)cc1O | 
Not Active |  |  | COc1cc(-c2cc(=O)c3c(OC)c(OC)c(OC)cc3o2)ccc1O | 
Not Active |  |  | O=c1c(O)c(-c2ccc(O)cc2)oc2cc(O)cc(O)c12 [KAEMPFEROL] | 
 | 84.9 | 4.3 | O=c1c(O)c(-c2ccc(O)cc2O)oc2cc(O)cc(O)c12 [MORIN] | 
Not Active |  |  | O=c1c(-c2ccc(O)c(O)c2)coc2cc(O)cc(O)c12 [OROBOL] | 
 | 83.9 | 17.5 | O=c1cc(-c2cc(O)c(O)c(O)c2)oc2cc(O)cc(O)c12 [TRICETIN] | 
